Source: patent publication US12281149B2, “Modulators of G-protein coupled receptors” (priority 2021, dated 2025)
Where two headings read alike, the source gives them in different places. *1 amine or outer side, *2 acyl side, *3 side chain or, on linkers, in order; H or OH if unused. Where a SMILES comes first, the peptide text is derived from it. Side-chain parts run from the residue outwards. [ ]: non-standard residue; d: D form. The star is where a group is joined. C20 diacid = O=C(O)CCCCCCCCCCCCCCCCCCC(=O)*; γGlu = O=C(O)[C@H](CCC(=O)[*:2])N[*:1]; X19 = O=C1COc2ccccc2N1CCNCCC(=O)*; NH(3-Cl-phenyl) = Clc1cccc(N*)c1; NH(4-Me-phenyl) = Cc1ccc(N*)cc1; X45 = CC(Cn1cc(Br)cn1)NCCC(=O)*; X47 = O=C(CCNCc1cc(O)cc(Cl)c1)*; AEEA = NCCOCCOCC(=O)O; Aib = CC(C)(N)C(=O)O; CO = O=C([*:1])[*:2]; GABA = NCCCC(=O)O; βAla = NCCC(=O)O

Experiments:
Type in all cases: cell-based
GIP receptor [1] = molecular target: T1, GIP receptor (Homo sapiens, UniProt P48546); test: HitHunter cAMP assay, GIP receptor; settings: for Emax: read-out: Emax GIP-1R
T1 sequence (P48546 22-466): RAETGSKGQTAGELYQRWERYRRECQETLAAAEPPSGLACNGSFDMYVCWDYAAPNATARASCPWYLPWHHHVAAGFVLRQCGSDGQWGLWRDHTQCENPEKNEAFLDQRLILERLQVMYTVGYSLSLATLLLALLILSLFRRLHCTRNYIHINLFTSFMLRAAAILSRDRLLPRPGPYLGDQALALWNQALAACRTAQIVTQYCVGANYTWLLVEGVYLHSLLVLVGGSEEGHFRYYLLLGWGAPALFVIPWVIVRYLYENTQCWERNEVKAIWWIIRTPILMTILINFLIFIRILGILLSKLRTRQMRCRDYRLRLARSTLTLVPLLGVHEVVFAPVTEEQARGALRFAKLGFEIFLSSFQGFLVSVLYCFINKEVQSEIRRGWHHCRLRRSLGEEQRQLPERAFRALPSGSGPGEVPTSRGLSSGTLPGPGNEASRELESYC

GIP receptor [2] = molecular target: T1, GIP receptor; test: PathHunter β-arrestin assay, GIP receptor; parameters: host or cells: PathHunter CHO-K1 GIPR β-Arrestin Cell Line
Description: β-arrestin-2 recruitment for GLP-1 receptor or GIP receptor was measured using the DiscoverX PathHunter Detection Kit and PathHunter® CHO-K1 GLPIR β-Arrestin Cell Line or PathHunter® CHO-K1 GIPR β-Arrestin Cell Line, respectively). Briefly, cells were grown in Ham's F12 Nutrient Mix with 10% FBS and lifted with Cell dissociation buffer, Enzyme free, PBS based (ThermoFisher). Harvested cells were pelleted and resuspended in Assay Complete Cell Plating Reagent 2 and 5000 cells per well were plated in tissue culture treated 384-well small volume white assay plates. Plates were then incubated at 37° C. and 5% CO2 overnight. The media was then replaced with fresh Assay Complete Cell Plating Reagent 2. Cells were then treated with 10 nl compound in DMSO using an ECHO 550 acoustic dispenser (Labcyte) in a 20-point dose response format in duplicate for 90 min at 37° C. The assay was then completed according to the manufacturer's instructions. Luminescence was measured using a Perkin Elmer Envision plate reader. Raw data was normalized to the maximum signal from GLP-1 or GIP (high) and DMSO (low). Dose response curves were analyzed using GraphPad Prism 9.0.

GLP-1 receptor [3] = molecular target: T2, GLP-1 receptor (Homo sapiens, UniProt P43220); test: PathHunter β-arrestin assay, GLP-1 receptor; parameters: host or cells: PathHunter CHO-K1 GLP1R β-Arrestin Cell Line
GLP-1 receptor [4] = molecular target: T2, GLP-1 receptor; test: HitHunter cAMP assay, GLP-1 receptor; settings: for Emax: read-out: Emax GLP-1R
[5] = CHO cells stably expressing GIP receptor, cAMP accumulation, 30 min, read-out: EC50 GIP-1R
[6] = CHO cells, cAMP, normalized to maximum signal from GIP (high) and DMSO (low)
[7] = β-arrestin-2 recruitment, PathHunter CHO-K1 GIPR β-Arrestin Cell Line, 90 min at 37° C., normalized to GIP, read-out: GIPR β Arrestin EC50
[8] = β-arrestin-2 recruitment, PathHunter CHO-K1 GLP1R β-Arrestin Cell Line, 90 min at 37° C., normalized to GLP-1, read-out: GLP-1R β Arrestin EC50
[9] = CHO cells stably expressing human GLP-1 receptor, cAMP accumulation, 30 min, read-out: EC50 GLP-1R
[10] = CHO cells, cAMP, normalized to maximum signal from GLP-1 (high) and DMSO (low)

T2 sequence (P43220 24-463): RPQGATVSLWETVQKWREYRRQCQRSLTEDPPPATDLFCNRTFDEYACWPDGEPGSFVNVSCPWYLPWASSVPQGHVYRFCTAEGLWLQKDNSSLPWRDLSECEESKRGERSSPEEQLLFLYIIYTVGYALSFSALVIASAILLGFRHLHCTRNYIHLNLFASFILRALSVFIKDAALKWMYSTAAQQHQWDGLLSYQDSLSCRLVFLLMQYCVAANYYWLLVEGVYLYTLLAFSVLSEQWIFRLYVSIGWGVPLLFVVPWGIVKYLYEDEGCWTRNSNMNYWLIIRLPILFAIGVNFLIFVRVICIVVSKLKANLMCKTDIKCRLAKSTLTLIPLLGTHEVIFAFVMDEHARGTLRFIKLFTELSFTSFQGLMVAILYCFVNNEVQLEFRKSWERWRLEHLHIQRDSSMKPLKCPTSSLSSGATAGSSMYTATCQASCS

CC[C@H](C)[C@H](NC(=O)[C@H](CC(C)C)NC(=O)[C@H](Cc1c[nH]c2ccccc12)NC(=O)[C@H](CCC(N)=O)NC(=O)[C@@H](NC(=O)[C@H](Cc1ccccc1)NC(=O)[C@H](C)NC(=O)[C@H](CCCCNC(=O)COCCOCCNC(=O)COCCOCCNC(=O)CC[C@H](NC(=O)CCCCCCCCCCCCCCCCCCC(=O)O)C(=O)O)NC(=O)[C@H](CCC(N)=O)NC(=O)[C@H](C)NC(=O)[C@@H](NC(=O)[C@H](CCCCN)NC(=O)[C@H](CC(=O)O)NC(=O)[C@H](CC(C)C)NC(=O)C(C)(C)NC(=O)[C@@H](NC(=O)[C@H](CO)NC(=O)[C@H](Cc1ccc(O)cc1)NC(=O)[C@H](CC(=O)O)NC(=O)[C@H](CO)NC(=O)[C@@H](NC(=O)[C@H](Cc1ccccc1)NC(=O)[C@@H](NC(=O)CNC(=O)[C@H](CCC(=O)O)NC(=O)CCNC(=O)[C@H](C)NC(=O)Nc1ccc(C)cc1)[C@@H](C)O)[C@@H](C)O)[C@@H](C)CC)[C@@H](C)CC)C(C)C)C(=O)N[C@@H](C)C(=O)NCC(=O)NCC(=O)N1CCC[C@H]1C(=O)N[C@@H](CO)C(=O)N[C@@H](CO)C(=O)NCC(=O)N[C@@H](C)C(=O)N1CCC[C@H]1C(=O)N1CCC[C@H]1C(=O)N1CCC[C@H]1C(=O)N[C@@H](CO)C(N)=O [Compound 272] ({NH(4-Me-phenyl)-CO}-A[βAla]EGTFTSDYSI[Aib]LDKIAQK([AEEA-AEEA-γGlu-C20 diacid])AFVQWLIAGGPSSGAPPPS-NH2)
EC50 (GIP receptor [1]): 10 to 100 nM
Emax (GIP receptor [1]; CHO): 91%
EC50 (GIP receptor [2]): > 1000 nM
EC50 (GLP-1 receptor [3]): > 1000 nM
EC50 (GLP-1 receptor [4]): 10 to 100 nM
Emax (GLP-1 receptor [4]; CHO): 75%

CC[C@H](C)[C@H](NC(=O)[C@H](CC(C)C)NC(=O)[C@H](Cc1c[nH]c2ccccc12)NC(=O)[C@H](CCC(N)=O)NC(=O)[C@@H](NC(=O)[C@H](Cc1ccccc1)NC(=O)[C@H](C)NC(=O)[C@H](CCCCNC(=O)COCCOCCNC(=O)COCCOCCNC(=O)CC[C@H](NC(=O)CCCCCCCCCCCCCCCCCCC(=O)O)C(=O)O)NC(=O)[C@H](CCC(N)=O)NC(=O)[C@H](C)NC(=O)[C@@H](NC(=O)[C@H](CCCCN)NC(=O)[C@H](CC(=O)O)NC(=O)[C@H](CC(C)C)NC(=O)C(C)(C)NC(=O)[C@@H](NC(=O)[C@H](CO)NC(=O)[C@H](Cc1ccc(O)cc1)NC(=O)[C@H](CC(=O)O)NC(=O)[C@H](CO)NC(=O)[C@@H](NC(=O)[C@H](Cc1ccccc1)NC(=O)[C@@H](NC(=O)CNC(=O)[C@H](CCC(=O)O)NC(=O)CCCNC(=O)CNC(=O)Nc1cccc(Cl)c1)[C@@H](C)O)[C@@H](C)O)[C@@H](C)CC)[C@@H](C)CC)C(C)C)C(=O)N[C@@H](C)C(=O)NCC(=O)NCC(=O)N1CCC[C@H]1C(=O)N[C@@H](CO)C(=O)N[C@@H](CO)C(=O)NCC(=O)N[C@@H](C)C(=O)N1CCC[C@H]1C(=O)N1CCC[C@H]1C(=O)N1CCC[C@H]1C(=O)N[C@@H](CO)C(N)=O [Compound 273] ({NH(3-Cl-phenyl)-CO}-G[GABA]EGTFTSDYSI[Aib]LDKIAQK([AEEA-AEEA-γGlu-C20 diacid])AFVQWLIAGGPSSGAPPPS-NH2)
EC50 (GIP receptor [1]): 1 to 10 nM
Emax (GIP receptor [1]; CHO): 99%
EC50 (GIP receptor [2]): > 1000 nM
EC50 (GLP-1 receptor [3]): > 1000 nM
EC50 (GLP-1 receptor [4]): 1 to 10 nM
Emax (GLP-1 receptor [4]; CHO): 106%

CC[C@H](C)[C@H](NC(=O)[C@H](CC(C)C)NC(=O)[C@H](Cc1c[nH]c2ccccc12)NC(=O)[C@H](CCC(N)=O)NC(=O)[C@@H](NC(=O)[C@H](Cc1ccccc1)NC(=O)[C@H](C)NC(=O)[C@H](CCCCNC(=O)COCCOCCNC(=O)COCCOCCNC(=O)CC[C@H](NC(=O)CCCCCCCCCCCCCCCCCCC(=O)O)C(=O)O)NC(=O)[C@H](CCC(N)=O)NC(=O)[C@H](C)NC(=O)[C@@H](NC(=O)[C@H](CCCCN)NC(=O)[C@H](CC(=O)O)NC(=O)[C@H](CC(C)C)NC(=O)C(C)(C)NC(=O)[C@@H](NC(=O)[C@H](CO)NC(=O)[C@H](Cc1ccc(O)cc1)NC(=O)[C@H](CC(=O)O)NC(=O)[C@H](CO)NC(=O)[C@@H](NC(=O)[C@H](Cc1ccccc1)NC(=O)[C@@H](NC(=O)CNC(=O)[C@H](CCC(=O)O)NC(=O)CCNC(C)Cn1cc(Br)cn1)[C@@H](C)O)[C@@H](C)O)[C@@H](C)CC)[C@@H](C)CC)C(C)C)C(=O)N[C@@H](C)C(=O)NCC(=O)NCC(=O)N1CCC[C@H]1C(=O)N[C@@H](CO)C(=O)N[C@@H](CO)C(=O)NCC(=O)N[C@@H](C)C(=O)N1CCC[C@H]1C(=O)N1CCC[C@H]1C(=O)N1CCC[C@H]1C(=O)N[C@@H](CO)C(N)=O (stereo partly drawn) [Compound 274] (X45-EGTFTSDYSI[Aib]LDKIAQK([AEEA-AEEA-γGlu-C20 diacid])AFVQWLIAGGPSSGAPPPS-NH2)
EC50 (GIP receptor [1]; [5]): 100 to 1000 nM
Emax (GIP receptor [1]; [6]): 36%
EC50 (GIP receptor [2]; [7]): > 1000 nM
EC50 (GLP-1 receptor [3]; [8]): > 1000 nM
EC50 (GLP-1 receptor [4]; [9]): 10 to 100 nM
Emax (GLP-1 receptor [4]; [10]): 88%

CC[C@H](C)[C@H](NC(=O)[C@H](CC(C)C)NC(=O)[C@H](Cc1c[nH]c2ccccc12)NC(=O)[C@H](CCC(N)=O)NC(=O)[C@@H](NC(=O)[C@H](Cc1ccccc1)NC(=O)[C@H](C)NC(=O)[C@H](CCCCNC(=O)COCCOCCNC(=O)COCCOCCNC(=O)CC[C@H](NC(=O)CCCCCCCCCCCCCCCCCCC(=O)O)C(=O)O)NC(=O)[C@H](CCC(N)=O)NC(=O)[C@H](C)NC(=O)[C@@H](NC(=O)[C@H](CCCCN)NC(=O)[C@H](CC(=O)O)NC(=O)[C@H](CC(C)C)NC(=O)C(C)(C)NC(=O)[C@@H](NC(=O)[C@H](CO)NC(=O)[C@H](Cc1ccc(O)cc1)NC(=O)[C@H](CC(=O)O)NC(=O)[C@H](CO)NC(=O)[C@@H](NC(=O)[C@H](Cc1ccccc1)NC(=O)[C@@H](NC(=O)CNC(=O)[C@H](CCC(=O)O)NC(=O)CCNCc1cc(O)cc(Cl)c1)[C@@H](C)O)[C@@H](C)O)[C@@H](C)CC)[C@@H](C)CC)C(C)C)C(=O)N[C@@H](C)C(=O)NCC(=O)NCC(=O)N1CCC[C@H]1C(=O)N[C@@H](CO)C(=O)N[C@@H](CO)C(=O)NCC(=O)N[C@@H](C)C(=O)N1CCC[C@H]1C(=O)N1CCC[C@H]1C(=O)N1CCC[C@H]1C(=O)N[C@@H](CO)C(N)=O [Compound 275] (X47-EGTFTSDYSI[Aib]LDKIAQK([AEEA-AEEA-γGlu-C20 diacid])AFVQWLIAGGPSSGAPPPS-NH2)
EC50 (GIP receptor [1]; [5]): 10 to 100 nM
Emax (GIP receptor [1]; [6]): 17%
EC50 (GIP receptor [2]; [7]): > 1000 nM
EC50 (GLP-1 receptor [3]; [8]): > 1000 nM
EC50 (GLP-1 receptor [4]; [9]): 1 to 10 nM
Emax (GLP-1 receptor [4]; [10]): 99%

CC[C@H](C)[C@H](NC(=O)[C@H](CC(C)C)NC(=O)[C@H](Cc1c[nH]c2ccccc12)NC(=O)[C@H](CCC(N)=O)NC(=O)[C@@H](NC(=O)[C@H](Cc1ccccc1)NC(=O)[C@H](C)NC(=O)[C@H](CCCCNC(=O)COCCOCCNC(=O)COCCOCCNC(=O)CC[C@H](NC(=O)CCCCCCCCCCCCCCCCCCC(=O)O)C(=O)O)NC(=O)[C@H](CCC(N)=O)NC(=O)[C@H](C)NC(=O)[C@@H](NC(=O)[C@H](CCCCN)NC(=O)[C@H](CC(=O)O)NC(=O)[C@H](CC(C)C)NC(=O)C(C)(C)NC(=O)[C@@H](NC(=O)[C@H](CO)NC(=O)[C@H](Cc1ccc(O)cc1)NC(=O)[C@H](CC(=O)O)NC(=O)[C@H](CO)NC(=O)[C@@H](NC(=O)[C@H](Cc1ccccc1)NC(=O)[C@@H](NC(=O)CNC(=O)[C@H](CCC(=O)O)NC(=O)CCNCCN1C(=O)COc2ccccc21)[C@@H](C)O)[C@@H](C)O)[C@@H](C)CC)[C@@H](C)CC)C(C)C)C(=O)N[C@@H](C)C(=O)NCC(=O)NCC(=O)N1CCC[C@H]1C(=O)N[C@@H](CO)C(=O)N[C@@H](CO)C(=O)NCC(=O)N[C@@H](C)C(=O)N1CCC[C@H]1C(=O)N1CCC[C@H]1C(=O)N1CCC[C@H]1C(=O)N[C@@H](CO)C(N)=O [Compound 276] (X19-EGTFTSDYSI[Aib]LDKIAQK([AEEA-AEEA-γGlu-C20 diacid])AFVQWLIAGGPSSGAPPPS-NH2)
EC50 (GIP receptor [1]; [5]): 100 to 1000 nM
Emax (GIP receptor [1]; [6]): 35%
EC50 (GIP receptor [2]; [7]): > 1000 nM
EC50 (GLP-1 receptor [3]; [8]): > 1000 nM
EC50 (GLP-1 receptor [4]; [9]): 10 to 100 nM
Emax (GLP-1 receptor [4]; [10]): 95%
